In patent publication US20210024520A1, “THERAPEUTIC AGENT FOR LCAT DEFICIENCY” (DAIICHI SANKYO COMPANY, LIMITED, priority 2018, published 2021):
Positions count from the first letter of the chain named.

Key:
Assay type in all cases: biochemical
[1] = target: T1, mutant LCAT protein T1231 (Homo sapiens, UniProt P04180, T147I); assay: Measurement of LCAT activity using LCAT mutant protein T1231 (FED), reconstituted HDL with [14C]-cholesterol; details: compound concentration 1 μM
T1 construct: made in house; host or cells: HEK293 cells (culture supernatant)
T1 sequence (P04180 25-440 T147I): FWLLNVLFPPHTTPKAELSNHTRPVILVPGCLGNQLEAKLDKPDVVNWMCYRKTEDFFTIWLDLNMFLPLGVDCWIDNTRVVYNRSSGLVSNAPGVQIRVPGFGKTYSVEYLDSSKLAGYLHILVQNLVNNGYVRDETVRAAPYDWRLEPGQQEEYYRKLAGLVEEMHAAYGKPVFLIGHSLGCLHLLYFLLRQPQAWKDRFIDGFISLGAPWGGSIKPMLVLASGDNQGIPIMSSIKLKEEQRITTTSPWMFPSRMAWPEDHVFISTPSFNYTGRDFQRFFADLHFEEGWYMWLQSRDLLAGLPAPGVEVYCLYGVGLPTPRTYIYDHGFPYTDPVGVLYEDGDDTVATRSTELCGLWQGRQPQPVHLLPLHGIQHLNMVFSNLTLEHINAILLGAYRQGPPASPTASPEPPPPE
Description: (§1) Mutant LCAT proteins, reported on gene mutations among patients with familial LCAT deficiency (FLD) and patients with fish eye disease (FED), were expressed in HEK293 cells, and the mutant LCAT proteins were purified from the culture supernatant and used as enzyme sources. HDL was reconstituted with phosphatidylcholine, [14C]-labelled cholesterol, and apolipoprotein A-I and used as a reactive substrate. The test compound was prepared by being dissolved in dimethyl sulfoxide. To a mixture of 7 μL of the mutant LCAT protein solution (concentration 0.034 μg/μL), 1 μL each of PBS containing 10% bovine serum albumin or mercaptoethanol, and 40 μL of the above-mentioned reconstituted HDL was further added 1 μL of the test compound (final concentration 1 or 10 μM) to prepare 50 μL of a mixture in total. The mixture was incubated at 37° C. for 1 hour and subsequently a mixed solution of hexane and isopropanol (mixing ratio=3:2) was added to stop the reaction. […] Radioactivity of a portion corresponding to the cholesterol ester separated on each lane by the development on the silica gel thin-layer plate was measured using an imaging analyzer BAS-2500 (manufactured by FUJIFILM Corporation). […] Additionally, the presence and absence of significant differences in both cases were statistically evaluated using t-test or Dunnett multiple comparison test.

[2] = target: T2, mutant LCAT protein N228K (Homo sapiens, UniProt P04180, N252K); assay: Measurement of LCAT activity using LCAT mutant protein N228K (FLD), reconstituted HDL with [14C]-cholesterol; details: for Measured value of LCAT activity Mean ± standard error (n = 6): 37° C. 1 hour, radioactivity of cholesterol ester
T2 construct: made in house; host or cells: HEK293 cells (culture supernatant)
T2 sequence (P04180 25-440 N252K): T1 sequence (P04180 25-440 T147I) with I123T, N228K
Description: (§2) Mutant LCAT proteins, reported on gene mutations among patients with familial LCAT deficiency (FLD) and patients with fish eye disease (FED), were expressed in HEK293 cells, and the mutant LCAT proteins were purified from the culture supernatant and used as enzyme sources. HDL was reconstituted with phosphatidylcholine, [14C]-labelled cholesterol, and apolipoprotein A-I and used as a reactive substrate. The test compound was prepared by being dissolved in dimethyl sulfoxide. To a mixture of 7 μL of the mutant LCAT protein solution (concentration 0.034 μg/μL), 1 μL each of PBS containing 10% bovine serum albumin or mercaptoethanol, and 40 μL of the above-mentioned reconstituted HDL was further added 1 μL of the test compound (final concentration 1 or 10 μM) to prepare 50 μL of a mixture in total. The mixture was incubated at 37° C. for 1 hour and subsequently a mixed solution of hexane and isopropanol (mixing ratio=3:2) was added to stop the reaction. Water was added and stirred, and subsequently the hexane layer was collected and concentrated to dryness. A chloroform solution (concentration 10 mg/mL) was added thereto, spotted on a silica gel thin-layer plate and developed with a mixed solution of hexane, diethyl ether and ethyl acetate (mixing ratio=85:15:2). Radioactivity of a portion corresponding to the cholesterol ester separated on each lane by the development on the silica gel thin-layer plate was measured using an imaging analyzer BAS-2500 (manufactured by FUJIFILM Corporation). Radioactivities with and without the test compound were compared to calculate the ratio of LCAT activity with the addition of the test compound to that without the addition of the test compound for each of the mutant proteins. Additionally, the presence and absence of significant differences in both cases were statistically evaluated using t-test or Dunnett multiple comparison test.

mutant LCAT protein P10Q = target: T3, mutant LCAT protein P10Q (Homo sapiens, UniProt P04180, P34Q); assay: Measurement of LCAT activity using LCAT mutant protein P10Q (FED), reconstituted HDL with [14C]-cholesterol; details: compound concentration 1 μM
T3 construct: made in house; host or cells: HEK293 cells (culture supernatant)
T3 sequence (P04180 25-440 P34Q): T1 sequence (P04180 25-440 T147I) with P10Q, I123T
Description: as §1

[3] = target: T4, mutant LCAT protein Y156N (Homo sapiens, UniProt P04180, Y180N); assay: Measurement of LCAT activity using LCAT mutant protein Y156N (FLD), reconstituted HDL with [14C]-cholesterol; details: for Measured value of LCAT activity Mean ± standard error (n = 6): 37° C. 1 hour, radioactivity of cholesterol ester
T4 construct: made in house; host or cells: HEK293 cells (culture supernatant)
T4 sequence (P04180 25-440 Y180N): T1 sequence (P04180 25-440 T147I) with I123T, Y156N
Description: as §2

[4] = target: T5, mutant LCAT protein N131D (Homo sapiens, UniProt P04180, N155D); assay: Measurement of LCAT activity using LCAT mutant protein N131D (FED), reconstituted HDL with [14C]-cholesterol; details: compound concentration 1 μM
T5 construct: made in house; host or cells: HEK293 cells (culture supernatant)
T5 sequence (P04180 25-440 N155D): T1 sequence (P04180 25-440 T147I) with I123T, N131D
Description: as §1

[5] = 37° C. 1 hour, radioactivity of cholesterol ester

- LCAT activity ratio of case of compound addition to no-addition control [1]: 3.75
- Measured value of LCAT activity Mean ± standard error (n = 6) [1, 5]: 3263.11 ± 521.27
- LCAT activity ratio of case of compound addition to no-addition control ([2]; compound concentration 1 μM): 2.80
- Measured value of LCAT activity Mean ± standard error (n = 6) ([2]; compound concentration 1 μM): 634.17 ± 66.62
- LCAT activity ratio of case of compound addition to no-addition control ([2]; compound concentration 10 μM): 2.76
- Measured value of LCAT activity Mean ± standard error (n = 6) ([2]; compound concentration 10 μM): 625.22 ± 41.03
- LCAT activity ratio of case of compound addition to no-addition control (mutant LCAT protein P10Q): 3.83
- Measured value of LCAT activity Mean ± standard error (n = 6) (mutant LCAT protein P10Q; [5]): 2908.25 ± 429.42
- LCAT activity ratio of case of compound addition to no-addition control ([3]; compound concentration 1 μM): 1.83
- Measured value of LCAT activity Mean ± standard error (n = 6) ([3]; compound concentration 1 μM): 447.36 ± 47.06
- LCAT activity ratio of case of compound addition to no-addition control ([3]; compound concentration 10 μM): 1.82
- Measured value of LCAT activity Mean ± standard error (n = 6) ([3]; compound concentration 10 μM): 443.20 ± 36.83
- LCAT activity ratio of case of compound addition to no-addition control [4]: 3.19
- Measured value of LCAT activity Mean ± standard error (n = 6) [4, 5]: 1308.38 ± 259.22
SMILES: O=C1Nc2[nH]nc(C3CCN(c4cnc(C(F)(F)F)nc4)CC3)c2[C@@H](C(F)(F)F)[C@H]1O [test compound, (+)-Cis-5-hydroxy-4-(trifluoromethyl)-3-{1-[2-(trifluoromethyl)pyrimidin-5-yl]piperidin-4-yl}-1,4,5,7-tetrahydro-6H-pyrazolo[3,4-b]pyridin-6-one]
